A word on the IC50: it is the concentration at which inhibition is half-maximal.

Where only a bound is given, the exact number is not on record here.

Here are results for 48 compounds from patent US10640495B2, “Heterocycle derivatives having TrkA inhibitory activity” (Shionogi & Co., Ltd., priority 2015, dated 2020).

Chain of human TrkA (P04629 440-796): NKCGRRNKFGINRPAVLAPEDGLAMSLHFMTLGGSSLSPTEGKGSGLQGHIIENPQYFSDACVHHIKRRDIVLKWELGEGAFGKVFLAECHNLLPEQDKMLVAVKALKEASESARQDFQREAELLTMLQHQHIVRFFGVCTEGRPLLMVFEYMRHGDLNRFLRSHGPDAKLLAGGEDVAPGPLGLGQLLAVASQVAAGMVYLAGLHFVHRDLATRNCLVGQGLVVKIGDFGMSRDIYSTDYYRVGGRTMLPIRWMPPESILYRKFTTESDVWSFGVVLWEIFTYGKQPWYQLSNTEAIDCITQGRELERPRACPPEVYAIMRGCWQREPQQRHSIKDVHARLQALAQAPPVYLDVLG

One experiment concerns the target human TrkA (Homo sapiens (Human), UniProt P04629). The experiment is described as follows: Human TrkA inhibition assay (Test Example 2). The format is biochemical. Particulars: Table 153, human TrkA inhibition; read-out: IC50. An outline of the steps:
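Mobility-shift readout of phosphorylated versus unphosphorylated fluorescent peptide gave conversion ratio, normalized to DMSO and no-enzyme wells; IC50 by logistic fit of 10- or 15-point 3-fold dilutions. Conditions: 1 nmol/L enzyme, 15 min compound preincubation, then 500 μmol/L ATP plus 1.5 μmol/L peptide, 120 min, 37 °C.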
On to `COCC[C@@H]1C[C@@H](NC(=O)Nc2c(C)c(C3=CCNCC3)nn2-c2ccccc2)[C@H](c2ccc(F)c(F)c2)O1` (racemic) [Compound I-55], for which the IC50 is below 100 nM.

Consider `CCN1C[C@@H](NC(=O)Nc2c(C)c(-c3cc(C(=O)NC)c(=O)n(C)c3)nn2-c2ccccc2)[C@H](c2ccc(F)c(F)c2)O1` (racemic) [Compound I-148], for which the 50% inhibitory concentration (IC50) is below 100 nM. For `COCCN1C[C@@H](NC(=O)Nc2c(C)c(-c3cnc(OC)nc3)nn2-c2ccccc2)[C@H](c2cnc(Cl)s2)O1` (racemic) [Compound I-157], the 50% inhibitory concentration (IC50) was below 100 nM.

Consider `COCCN1C[C@@H](NC(=O)Nc2c(C)c(-c3cnc(C4CC4)nc3)nn2-c2ccccc2)[C@H](c2cnc(F)c(F)c2)O1` (racemic) [Compound I-70], for which the IC50 is below 100 nM. On the same count and under the same terms, the result for `CNC(=O)c1cc(-c2nn(-c3ccccc3)c(NC(=O)N[C@@H]3CN(Cc4ccc(C#N)o4)O[C@H]3c3ccc(F)c(F)c3)c2C)cn(C)c1=O` (racemic) [Compound I-150] reads below 100 nM. On the same count and under the same terms, for `COCCN1C[C@@H](NC(=O)Nc2c(C)c(-c3cnc4c(c3)nc(CO)n4C)nn2-c2ccccc2)[C@H](c2ccc(F)c(F)c2)O1` (racemic) [Compound I-78] the value was below 100 nM.

With `CCNC(=O)c1cc(-c2nn(-c3ccccc3)c(NC(=O)N[C@@H]3CN(CCOC)O[C@H]3c3ccnc(F)c3)c2C)cn(C)c1=O` (racemic) [Compound I-107], the 50% inhibitory concentration (IC50) was below 100 nM.

The same experiment, now with this note: Table 154, human TrkA inhibition; read-out: IC50.
As for `Cc1c(-c2cnc3c(cnn3C)c2)nn(-c2ccccc2)c1NC(=O)N[C@@H]1CN(Cc2cnn(C)c2)O[C@H]1c1ccc(F)c(F)c1` (racemic) [Compound I-205], the IC50 fell in the range of 100 to 1000 nM. On the same count and under the same terms, for `COCCN1C[C@@H](NC(=O)Nc2c(C)c(-c3ccc4nc(C(N)=O)cn4c3)nn2-c2ccccc2)[C@H](c2ccc(F)c(F)c2)O1` [Compound I-310] the value was below 100 nM; for `Cc1c(-c2cnc3c(cnn3C)c2)nn(-c2ccccc2)c1NC(=O)N[C@@H]1CN(CC2CC2)O[C@H]1c1ccc(F)c(F)c1` (racemic) [Compound I-201], below 100 nM. The same measure, in the same setting: for `Cc1c(-c2cnc3c(cnn3C)c2)nn(-c2ccccc2)c1NC(=O)N[C@@H]1CN(CC(C)(C)CN(C)C)O[C@H]1c1ccc(F)c(F)c1` (racemic) [Compound I-206] the value was 100 to 1000 nM; for `CNS(=O)(=O)c1cc(-c2nn(-c3ccccc3)c(NC(=O)N[C@@H]3CN(CCOC)O[C@H]3c3ccc(F)c(F)c3)c2C)cn(C)c1=O` (racemic) [Compound I-177], below 100 nM.

On to `CNC(=O)c1ncc(-c2nn(-c3ccccc3)c(NC(=O)N[C@@H]3CN(CCOC)O[C@H]3c3ccnc(F)c3)c2C)cc1F` (racemic) [Compound I-256], for which the half-inhibitory concentration (IC50) is below 100 nM. On the same count and under the same terms, the result for `COCCN1C[C@@H](NC(=O)Nc2c(C)c(-c3cnc(OC)c(C(=O)NC4CCOCC4)c3)nn2-c2ccc(F)c(F)c2)[C@H](c2ccc(F)c(F)c2)O1` (racemic) [Compound I-182] reads below 100 nM; that for `COCCN1C[C@@H](NC(=O)Nc2c(C)c(-c3ccnc(C(=O)OC)c3)nn2-c2ccccc2)[C@H](c2ccc(F)c(F)c2)O1` (racemic) [Compound I-189], below 100 nM. Same read-out and setting: for `COCCN1C[C@@H](NC(=O)Nc2c(C)c(-c3cnc4c(c3)[nH]c(=O)n4C)nn2-c2ccccc2)[C@H](c2ccc(F)c(F)c2)O1` [Compound I-218] the value was below 100 nM; for `COCCN1C[C@@H](NC(=O)Nc2c(C)c(-c3cnc(OC)c(C(=O)NOCC(C)(C)O)c3)nn2-c2ccccc2)[C@H](c2cnc(F)c(F)c2)O1` (racemic) [Compound I-318], below 100 nM. On the same count and under the same terms, the result for `COCCN1C[C@@H](NC(=O)Nc2c(C)c(-c3cnc4c(cnn4C)c3)nn2-c2ccc(F)cc2)[C@H](c2ccnc(F)c2)O1` (racemic) [Compound I-223] reads below 100 nM; that for `COCCN1C[C@@H](NC(=O)Nc2c(C)c(-c3ccc(C(=O)NOC)nc3)nn2-c2ccccc2)[C@H](c2ccc(F)c(F)c2)O1` (racemic) [Compound I-234], below 100 nM.

Staying with this experiment, now noted: Table 155, human TrkA inhibition; read-out: IC50.
For `COCCN1C[C@@H](NC(=O)Nc2c(C)c(-c3cnc4c(c3)nc(N3CCN(C)CC3)n4C)nn2-c2ccccc2)[C@H](c2ccnc(F)c2)O1` (racemic) [Compound I-399], the concentration for half-maximal inhibition (IC50) is below 100 nM. The same measure, in the same setting: for `COCCN1C[C@@H](NC(=O)Nc2c(C)c(-c3cnc4c(c3)CN(C)C4=O)nn2-c2ccccc2)[C@H](c2ccc(F)cc2)O1` [Compound I-411] the value was below 100 nM; for `COCCN1C[C@@H](NC(=O)Nc2c(C)c(-c3ccn(C)c(=O)c3)nn2-c2ccccc2)[C@H](c2ccc(F)c(F)c2)O1` [Compound I-497], below 100 nM; for `COCCN1C[C@@H](NC(=O)Nc2c(C)c(-c3cnc(N4C[C@H]5C[C@@H](C4)O5)nc3)nn2-c2ccccc2)[C@H](c2ccnc(F)c2)O1` (racemic) [Compound I-487], below 100 nM. Same read-out and setting: the result for `COCCN1C[C@@H](NC(=O)Nc2c(C)c(-c3cnc4c(c3)c(CN3CCCC3)nn4C)nn2-c2ccccc2)[C@H](c2ccnc(F)c2)O1` (racemic) [Compound I-412] reads below 100 nM; that for `COCCN1C[C@@H](NC(=O)Nc2c(C)c(-c3cnc(N4CC5(CCOCC5)C4)nc3)nn2-c2ccccc2)[C@H](c2ccnc(F)c2)O1` (racemic) [Compound I-408], below 100 nM. Same read-out and setting: for `COCCN1C[C@@H](NC(=O)Nc2c(C)c(-c3cnc(N4CCC5(COC5)C4)nc3)nn2-c2ccccc2)[C@H](c2ccnc(F)c2)O1` (racemic) [Compound I-482] the value was below 100 nM; for `COCCN1C[C@@H](NC(=O)Nc2c(C)c(-c3cnc4c(cnn4C)c3)nn2-c2ccccc2)[C@H](c2cnc(F)c(F)c2)O1` [Compound I-417], below 100 nM; for `COCCN1C[C@@H](NC(=O)Nc2c(C)c(-c3cnc4c(c3)CCC4O)nn2-c2ccccc2)[C@H](c2ccnc(F)c2)O1` (stereo partly drawn) [Compound I-353], below 100 nM. For `COCCN1C[C@@H](NC(=O)Nc2c(C)c(-c3cnc(C(C)(C)O)c(F)c3)nn2-c2ccccc2)[C@H](c2ccnc(F)c2)O1` (racemic) [Compound I-459], the half-maximal inhibitory concentration (IC50) is below 100 nM. Same read-out and setting: the result for `COCCN1C[C@@H](NC(=O)Nc2c(C)c(-c3cnc(N4CC5(COC5)C4)nc3)nn2-c2ccccc2)[C@H](c2cnc(F)c(F)c2)O1` [Compound I-430] reads below 100 nM. The same measure, in the same setting: for `COCCN1C[C@@H](NC(=O)Nc2c(C)c(-c3cnc(OC4COC4)nc3)nn2-c2ccccc2)[C@H](c2ccnc(F)c2)O1` (racemic) [Compound I-465] the value was below 100 nM; for `COCCN1C[C@@H](NC(=O)Nc2c(C)c(-c3cnc(OC)c(OC)c3)nn2-c2ccccc2)[C@H](c2ccnc(F)c2)O1` (racemic) [Compound I-366], below 100 nM. Still for that read-out and setting: for `COCCN1C[C@@H](NC(=O)Nc2c(C)c(-c3cnc(OCCN(C)C)nc3)nn2-c2ccccc2)[C@H](c2ccnc(F)c2)O1` (racemic) [Compound I-409] the value was below 100 nM; for `COCCN1C[C@@H](NC(=O)Nc2c(C)c(-c3cnc(N4CCN(C(=O)OCc5ccccc5)CC4)nc3)nn2-c2ccccc2)[C@H](c2cc(F)nc(F)c2)O1` (racemic) [Compound I-370], below 100 nM.

Staying with this experiment, now noted: Table 156, human TrkA inhibition; read-out: IC50.
Take `COCCN1C[C@@H](NC(=O)Nc2c(C)c(-c3ccc(COC(C)=O)nc3)nn2-c2ccccc2)[C@H](c2ccc(F)c(F)c2)O1` [Compound I-531]: the IC50 is below 100 nM. With `COCCN1C[C@@H](NC(=O)Nc2c(C)c(-c3ccc(OC)nc3)nn2-c2ccccc2)[C@H](c2ccc(F)c(F)c2)O1` [Compound I-516], the IC50 is below 100 nM. Consider `CCN1C[C@@H](NC(=O)Nc2c(C)c(-c3cnc(OC)c(C(=O)NC)c3)nn2-c2ccccc2)[C@H](c2ccc(F)cc2)O1` (racemic) [Compound I-570], for which the 50% inhibitory concentration (IC50) was below 100 nM.

Still in this experiment, the particulars now being: Table 157, human TrkA inhibition; read-out: IC50.
Consider `COCCN1C[C@@H](NC(=O)Nc2c(C)c(OCC3COC(C)(C)O3)nn2-c2ccccc2)[C@H](c2ccc(F)c(F)c2)O1` (stereo partly drawn) [Compound I-614], for which the IC50 is below 100 nM. On the same count and under the same terms, the result for `CCN1C[C@@H](NC(=O)Nc2c(C)c(OCCC3CCNC3)nn2-c2ccccc2)[C@H](c2ccc(F)c(F)c2)O1` (stereo partly drawn) [Compound I-599] reads below 100 nM.

On to `COCCN1CC(NC(=O)Nc2c(C)c(-c3cnc(N4CC5(CCO5)C4)nc3)nn2-c2ccccc2)C(c2ccnc(F)c2)O1` (racemic) [Compound I-581], for which the half-inhibitory concentration (IC50) was below 100 nM. Regarding `CCN1C[C@@H](NC(=O)Nc2c(C)c(OCC3CNC(=O)O3)nn2-c2ccccc2)[C@H](c2ccc(F)c(F)c2)O1` (stereo partly drawn) [Compound I-675], the IC50 was below 100 nM.

Regarding `CCN1C[C@@H](NC(=O)Nc2c(C)c(OCc3cc(=O)ccn3C)nn2-c2ccccc2)[C@H](c2ccc(F)c(F)c2)O1` (racemic) [Compound I-644], the concentration for half-maximal inhibition (IC50) is below 100 nM. The same measure, in the same setting: for `CCN1C[C@@H](NC(=O)Nc2c(C)c(OCCCN(C)C)nn2-c2ccccc2)[C@H](c2ccc(F)c(F)c2)O1` (racemic) [Compound I-610] the value was below 100 nM; for `CCN1C[C@@H](NC(=O)Nc2c(C)c(OCCCC(N)=O)nn2-c2ccccc2)[C@H](c2ccc(F)c(F)c2)O1` (racemic) [Compound I-663], below 100 nM.

Still in this experiment, the particulars now being: human TrkA 1 nmol/L, ATP 500 μmol/L, 120 min at 37° C.; read-out: IC50 values (TrkA phosphorylation inhibition).
As for `COCCN1C[C@@H](NC(=O)Nc2c(C)c(-c3ccc(CN(C)C)nc3)nn2-c2ccccc2)[C@H](c2ccc(F)c(F)c2)O1` [Compound I-638], the half-inhibitory concentration (IC50) amounted to 1.4 nM. Consider `COCCN1C[C@@H](NC(=O)Nc2c(C)c(-c3cnc(OC)nc3)nn2-c2ccccc2)[C@H](c2ccnc(F)c2)O1` [Compound I-322], for which the half-maximal inhibitory concentration (IC50) came out at 2.4 nM. For the compound `COCCN1C[C@@H](NC(=O)Nc2c(C)c(-c3cnc(N=S(C)(C)=O)nc3)nn2-c2ccccc2)[C@H](c2ccc(F)c(F)c2)O1` [Compound I-268], the IC50 was 0.55 nM. On the same count and under the same terms, for `COCCN1C[C@@H](NC(=O)Nc2c(C)c(-c3cnc(OCF)nc3)nn2-c2ccccc2)[C@H](c2ccnc(F)c2)O1` (racemic) [Compound I-620] the value was 6.8 nM.
